{
  "source": "ChEMBL document CHEMBL5465560",
  "about": "“Selectivity Literature for EUbOPEN Chemogenomic Library” (2024)",
  "key": {"[1]": {"biological_target": "Mitogen-activated protein kinase 9 (Homo sapiens, UniProt P45984)", "test": "Selectivity interaction (KinomeScan (DiscoverX)) EUB0001049a MAPK9", "conditions": "at 1 µM"}, "Peregrin (Homo sapiens)": {"biological_target": "T1, Peregrin (Homo sapiens) (UniProt P55201)", "T1 sequence (whole entry)": "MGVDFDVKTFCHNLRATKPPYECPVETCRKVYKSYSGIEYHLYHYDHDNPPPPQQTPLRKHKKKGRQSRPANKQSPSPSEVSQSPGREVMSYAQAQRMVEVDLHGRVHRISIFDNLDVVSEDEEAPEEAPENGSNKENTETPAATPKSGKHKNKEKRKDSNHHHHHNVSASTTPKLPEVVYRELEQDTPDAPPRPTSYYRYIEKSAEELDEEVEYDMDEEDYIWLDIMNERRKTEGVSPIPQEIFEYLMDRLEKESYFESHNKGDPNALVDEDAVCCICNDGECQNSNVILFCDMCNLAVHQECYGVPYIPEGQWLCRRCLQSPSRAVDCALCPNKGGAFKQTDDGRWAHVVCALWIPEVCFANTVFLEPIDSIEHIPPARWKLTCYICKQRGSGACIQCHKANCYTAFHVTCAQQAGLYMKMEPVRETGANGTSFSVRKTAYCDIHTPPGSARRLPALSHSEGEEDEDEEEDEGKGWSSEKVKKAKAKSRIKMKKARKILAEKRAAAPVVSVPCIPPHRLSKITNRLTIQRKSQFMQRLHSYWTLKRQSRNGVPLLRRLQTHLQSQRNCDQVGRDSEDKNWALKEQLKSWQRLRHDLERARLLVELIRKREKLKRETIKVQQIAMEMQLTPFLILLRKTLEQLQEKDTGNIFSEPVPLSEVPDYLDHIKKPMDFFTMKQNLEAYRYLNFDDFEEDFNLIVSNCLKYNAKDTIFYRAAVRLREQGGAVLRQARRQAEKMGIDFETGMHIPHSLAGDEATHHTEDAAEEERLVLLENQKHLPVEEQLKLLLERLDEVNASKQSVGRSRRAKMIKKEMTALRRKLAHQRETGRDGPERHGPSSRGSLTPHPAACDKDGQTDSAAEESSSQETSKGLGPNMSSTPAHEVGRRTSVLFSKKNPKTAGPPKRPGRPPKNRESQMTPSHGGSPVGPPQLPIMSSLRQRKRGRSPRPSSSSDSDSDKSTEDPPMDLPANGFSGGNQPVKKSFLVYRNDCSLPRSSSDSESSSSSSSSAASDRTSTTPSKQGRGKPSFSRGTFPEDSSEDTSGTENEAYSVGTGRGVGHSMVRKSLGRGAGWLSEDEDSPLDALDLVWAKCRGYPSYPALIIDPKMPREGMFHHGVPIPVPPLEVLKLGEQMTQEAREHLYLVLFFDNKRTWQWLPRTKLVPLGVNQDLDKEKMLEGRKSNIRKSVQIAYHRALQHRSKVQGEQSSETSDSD", "test": "Selectivity interaction (Human bromodomain panel (DSF assay)) EUB0000233b BRPF1"}, "[2]": {"biological_target": "Angiopoietin-1 receptor (Homo sapiens) (UniProt Q02763)", "conditions": "at 10 µM"}, "[3]": {"test_system": "Tyrosine-protein kinase ABL1 (Homo sapiens), P00519 [Q252H]", "conditions": "at 10 µM"}, "[4]": {"biological_target": "Tyrosine-protein kinase Fer (Homo sapiens) (UniProt P16591)", "test": "Selectivity interaction (ActivX KiNativ screen (kinase selectivity in THP-1 cell lysates)) EUB0000639a FER", "assay_type": "subcellular", "conditions": "lysate, at 0.2 µM"}, "[5]": {"biological_target": "T2, Dual specificity mitogen-activated protein kinase kinase 6 (Homo sapiens) (UniProt P52564)", "T2 sequence (whole entry)": "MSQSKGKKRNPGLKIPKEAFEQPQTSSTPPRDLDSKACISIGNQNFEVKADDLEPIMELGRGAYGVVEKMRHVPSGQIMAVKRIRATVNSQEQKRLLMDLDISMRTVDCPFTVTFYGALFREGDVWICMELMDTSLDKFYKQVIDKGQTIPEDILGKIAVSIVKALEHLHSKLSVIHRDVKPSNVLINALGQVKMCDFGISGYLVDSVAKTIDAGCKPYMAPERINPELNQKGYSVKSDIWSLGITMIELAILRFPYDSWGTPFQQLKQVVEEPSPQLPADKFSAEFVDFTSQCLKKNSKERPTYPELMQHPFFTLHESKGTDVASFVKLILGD", "test": "Selectivity interaction (Ambit KINOMEscan and KiNATiv profiling in Jurkat cells) EUB0000090b MAP2K6", "assay_type": "cell-based", "conditions": "at 1 µM"}, "[6]": {"biological_target": "Microtubule-associated serine/threonine-protein kinase 1 (Homo sapiens) (UniProt Q9Y2H9)", "sequence (Q9Y2H9 whole entry, looked up)": "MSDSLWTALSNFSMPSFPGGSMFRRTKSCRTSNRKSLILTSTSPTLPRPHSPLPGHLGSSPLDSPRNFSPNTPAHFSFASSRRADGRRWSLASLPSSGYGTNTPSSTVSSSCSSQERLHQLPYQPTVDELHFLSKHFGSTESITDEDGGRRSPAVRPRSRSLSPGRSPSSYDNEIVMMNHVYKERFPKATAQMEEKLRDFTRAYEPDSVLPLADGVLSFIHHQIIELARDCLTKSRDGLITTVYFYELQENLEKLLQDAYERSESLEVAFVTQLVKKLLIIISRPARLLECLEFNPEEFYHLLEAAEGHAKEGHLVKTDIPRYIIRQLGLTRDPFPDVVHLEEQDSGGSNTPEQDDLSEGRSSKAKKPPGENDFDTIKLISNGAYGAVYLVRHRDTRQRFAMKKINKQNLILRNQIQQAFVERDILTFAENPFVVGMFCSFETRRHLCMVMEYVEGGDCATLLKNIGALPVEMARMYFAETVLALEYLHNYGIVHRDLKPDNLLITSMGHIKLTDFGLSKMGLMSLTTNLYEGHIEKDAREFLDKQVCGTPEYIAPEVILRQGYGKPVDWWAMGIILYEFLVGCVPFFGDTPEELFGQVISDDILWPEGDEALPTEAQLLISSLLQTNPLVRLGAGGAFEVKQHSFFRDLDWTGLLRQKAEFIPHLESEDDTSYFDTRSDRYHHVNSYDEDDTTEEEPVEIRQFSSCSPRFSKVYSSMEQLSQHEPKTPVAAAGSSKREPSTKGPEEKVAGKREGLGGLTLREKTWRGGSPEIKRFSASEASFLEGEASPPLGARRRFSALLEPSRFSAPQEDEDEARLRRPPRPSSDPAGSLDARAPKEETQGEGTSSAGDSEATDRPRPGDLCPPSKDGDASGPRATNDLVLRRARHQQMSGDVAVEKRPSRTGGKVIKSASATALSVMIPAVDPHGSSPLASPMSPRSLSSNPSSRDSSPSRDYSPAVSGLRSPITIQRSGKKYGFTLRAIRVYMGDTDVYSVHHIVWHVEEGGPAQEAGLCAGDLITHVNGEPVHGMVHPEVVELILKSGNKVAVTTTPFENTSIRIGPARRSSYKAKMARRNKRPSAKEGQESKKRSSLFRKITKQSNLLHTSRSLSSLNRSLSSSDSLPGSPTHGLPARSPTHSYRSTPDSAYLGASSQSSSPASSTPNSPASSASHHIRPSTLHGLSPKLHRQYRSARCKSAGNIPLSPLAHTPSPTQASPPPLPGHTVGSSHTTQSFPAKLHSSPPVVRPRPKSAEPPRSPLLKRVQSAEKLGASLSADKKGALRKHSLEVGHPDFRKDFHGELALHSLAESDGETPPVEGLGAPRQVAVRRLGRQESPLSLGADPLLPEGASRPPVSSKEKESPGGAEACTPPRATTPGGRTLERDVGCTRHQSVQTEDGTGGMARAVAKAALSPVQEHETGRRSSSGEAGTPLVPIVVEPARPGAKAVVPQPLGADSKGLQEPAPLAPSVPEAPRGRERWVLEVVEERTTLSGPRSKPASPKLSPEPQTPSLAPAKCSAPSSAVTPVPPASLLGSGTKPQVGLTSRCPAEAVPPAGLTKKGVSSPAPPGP", "test": "Selectivity interaction (KinomeScan (DiscoverX)) EUB0000045b MAST1"}, "[7]": {"biological_target": "Ribosomal protein S6 kinase alpha-4 (Homo sapiens) (UniProt O75676)", "sequence (O75676 whole entry, looked up)": "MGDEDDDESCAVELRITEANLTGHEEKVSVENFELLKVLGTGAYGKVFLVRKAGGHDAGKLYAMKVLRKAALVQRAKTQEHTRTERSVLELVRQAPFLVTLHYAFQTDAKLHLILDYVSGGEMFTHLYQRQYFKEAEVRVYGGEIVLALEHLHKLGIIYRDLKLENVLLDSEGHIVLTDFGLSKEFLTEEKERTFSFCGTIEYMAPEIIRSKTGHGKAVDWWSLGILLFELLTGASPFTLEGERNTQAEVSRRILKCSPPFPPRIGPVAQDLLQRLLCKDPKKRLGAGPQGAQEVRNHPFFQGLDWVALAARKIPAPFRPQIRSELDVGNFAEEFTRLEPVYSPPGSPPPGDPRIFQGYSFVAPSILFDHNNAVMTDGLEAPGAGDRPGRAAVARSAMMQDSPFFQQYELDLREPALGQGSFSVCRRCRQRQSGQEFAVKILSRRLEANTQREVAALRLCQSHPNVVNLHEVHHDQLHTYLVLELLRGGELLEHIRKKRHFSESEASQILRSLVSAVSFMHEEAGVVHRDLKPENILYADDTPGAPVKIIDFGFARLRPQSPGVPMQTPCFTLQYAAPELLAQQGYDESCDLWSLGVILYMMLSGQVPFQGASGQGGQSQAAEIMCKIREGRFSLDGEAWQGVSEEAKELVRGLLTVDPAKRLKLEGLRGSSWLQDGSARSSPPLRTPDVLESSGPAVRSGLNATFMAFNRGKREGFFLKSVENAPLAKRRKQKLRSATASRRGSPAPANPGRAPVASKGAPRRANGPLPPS", "test": "Selectivity interaction (ActivX KiNativ screen (ex vivo kinase selectivity in human PBMCs)) EUB0001619a RPS6KA4", "assay_type": "cell-based", "conditions": "PBMC, at 1 µM"}, "[8]": {"biological_target": "Serine/threonine-protein kinase WNK3 (Homo sapiens) (UniProt Q9BYP7)", "sequence (Q9BYP7 whole entry)": "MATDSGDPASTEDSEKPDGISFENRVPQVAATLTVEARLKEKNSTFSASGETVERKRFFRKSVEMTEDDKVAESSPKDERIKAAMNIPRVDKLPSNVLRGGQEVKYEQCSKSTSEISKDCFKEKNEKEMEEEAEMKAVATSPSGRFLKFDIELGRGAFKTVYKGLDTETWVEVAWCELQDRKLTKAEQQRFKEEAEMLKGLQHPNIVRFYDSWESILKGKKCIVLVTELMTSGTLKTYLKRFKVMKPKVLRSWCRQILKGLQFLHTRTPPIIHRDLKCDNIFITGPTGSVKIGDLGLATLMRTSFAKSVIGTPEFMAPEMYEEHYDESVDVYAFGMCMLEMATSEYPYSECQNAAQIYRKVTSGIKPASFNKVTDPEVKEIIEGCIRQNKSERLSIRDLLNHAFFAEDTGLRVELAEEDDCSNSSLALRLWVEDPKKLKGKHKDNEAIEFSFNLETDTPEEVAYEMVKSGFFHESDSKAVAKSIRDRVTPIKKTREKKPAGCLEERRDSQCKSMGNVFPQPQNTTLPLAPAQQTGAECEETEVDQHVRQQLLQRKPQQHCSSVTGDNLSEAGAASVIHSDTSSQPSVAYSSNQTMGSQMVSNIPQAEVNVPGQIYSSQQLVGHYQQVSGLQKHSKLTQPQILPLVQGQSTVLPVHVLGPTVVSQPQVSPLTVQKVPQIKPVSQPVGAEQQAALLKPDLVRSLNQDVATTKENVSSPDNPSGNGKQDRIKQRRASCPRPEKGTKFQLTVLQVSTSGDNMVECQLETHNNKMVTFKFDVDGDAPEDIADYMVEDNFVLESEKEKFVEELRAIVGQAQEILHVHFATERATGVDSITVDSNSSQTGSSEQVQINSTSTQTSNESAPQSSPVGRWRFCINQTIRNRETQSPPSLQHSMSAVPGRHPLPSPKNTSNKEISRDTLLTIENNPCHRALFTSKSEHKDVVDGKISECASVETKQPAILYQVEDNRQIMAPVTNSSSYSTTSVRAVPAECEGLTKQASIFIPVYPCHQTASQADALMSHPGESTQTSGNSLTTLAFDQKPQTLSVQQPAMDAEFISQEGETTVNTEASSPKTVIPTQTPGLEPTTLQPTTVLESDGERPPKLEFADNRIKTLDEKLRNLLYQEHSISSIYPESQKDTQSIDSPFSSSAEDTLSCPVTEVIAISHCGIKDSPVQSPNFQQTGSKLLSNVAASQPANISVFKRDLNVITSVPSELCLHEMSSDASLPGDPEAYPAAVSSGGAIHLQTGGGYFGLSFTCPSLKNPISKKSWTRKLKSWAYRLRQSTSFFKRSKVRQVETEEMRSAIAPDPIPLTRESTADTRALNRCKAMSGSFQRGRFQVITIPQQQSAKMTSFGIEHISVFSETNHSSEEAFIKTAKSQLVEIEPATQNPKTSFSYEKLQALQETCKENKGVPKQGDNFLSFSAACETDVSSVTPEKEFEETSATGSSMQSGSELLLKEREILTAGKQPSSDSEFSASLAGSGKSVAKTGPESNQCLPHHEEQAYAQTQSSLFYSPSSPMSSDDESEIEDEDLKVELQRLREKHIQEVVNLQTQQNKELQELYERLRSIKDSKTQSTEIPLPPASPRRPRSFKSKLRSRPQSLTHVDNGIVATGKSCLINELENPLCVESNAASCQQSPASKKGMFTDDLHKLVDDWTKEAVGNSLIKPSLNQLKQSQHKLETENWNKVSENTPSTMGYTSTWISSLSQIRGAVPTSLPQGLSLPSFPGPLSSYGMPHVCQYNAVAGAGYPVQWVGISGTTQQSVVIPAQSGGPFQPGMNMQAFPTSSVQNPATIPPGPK", "test": "Selectivity interaction (Upstate Kinase Profiler service (Millipore)) EUB0000056c WNK3", "conditions": "at 1 µM"}, "[9]": {"biological_target": "Ephrin type-A receptor 7 (Homo sapiens) (UniProt Q15375)", "sequence (Q15375 28-998 limits assumed)": "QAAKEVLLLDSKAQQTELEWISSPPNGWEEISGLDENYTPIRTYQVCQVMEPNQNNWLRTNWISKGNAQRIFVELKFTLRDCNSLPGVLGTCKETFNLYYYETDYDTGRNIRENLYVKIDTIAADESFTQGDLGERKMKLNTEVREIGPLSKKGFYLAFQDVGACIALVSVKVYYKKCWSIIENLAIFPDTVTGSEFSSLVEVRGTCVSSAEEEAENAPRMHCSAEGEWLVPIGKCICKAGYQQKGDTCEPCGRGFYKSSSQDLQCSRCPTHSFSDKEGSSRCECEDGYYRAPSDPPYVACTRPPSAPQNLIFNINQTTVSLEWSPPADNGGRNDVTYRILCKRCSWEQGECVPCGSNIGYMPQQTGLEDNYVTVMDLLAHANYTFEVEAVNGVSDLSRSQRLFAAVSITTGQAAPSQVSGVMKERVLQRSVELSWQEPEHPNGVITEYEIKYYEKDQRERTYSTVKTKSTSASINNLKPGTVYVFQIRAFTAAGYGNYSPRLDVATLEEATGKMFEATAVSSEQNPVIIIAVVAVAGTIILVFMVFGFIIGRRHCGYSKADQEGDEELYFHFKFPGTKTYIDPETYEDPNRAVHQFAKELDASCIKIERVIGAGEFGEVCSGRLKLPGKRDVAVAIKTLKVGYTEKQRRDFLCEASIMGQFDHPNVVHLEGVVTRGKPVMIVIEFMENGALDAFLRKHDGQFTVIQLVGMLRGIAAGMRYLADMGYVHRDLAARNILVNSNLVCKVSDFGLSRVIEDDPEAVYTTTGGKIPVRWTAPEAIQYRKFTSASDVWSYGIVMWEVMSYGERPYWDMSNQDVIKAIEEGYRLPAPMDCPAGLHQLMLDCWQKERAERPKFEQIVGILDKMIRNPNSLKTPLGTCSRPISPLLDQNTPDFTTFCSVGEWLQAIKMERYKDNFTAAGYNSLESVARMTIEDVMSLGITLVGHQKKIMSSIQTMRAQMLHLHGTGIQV", "test": "Selectivity interaction (KinomeScan (DiscoverX)) EUB0000655a EPHA7", "conditions": "at 10 µM"}, "[10]": {"biological_target": "Phosphatidylinositol 4-phosphate 3-kinase C2 domain-containing subunit beta (Homo sapiens) (UniProt O00750)", "test": "Selectivity interaction (Adapta Assay) EUB0001632a PIK3C2B", "conditions": "at 10 µM"}, "[11]": {"biological_target": "CDK9/cyclin T1 (Homo sapiens) (UniProt O60563+P50750)", "test": "(§1) Selectivity interaction (ProQinase) EUB0000171b CDK9", "assay_type": "protein-complex assay"}, "[12]": {"biological_target": "CDK9/Cyclin K (Homo sapiens) (UniProt P50750+O75909)", "test": "as §1", "assay_type": "protein-complex assay"}},
  "data": [
    {"smiles": "COc1cc(Nc2nc(C)cc(-c3cnn4nc(OC)ccc34)n2)cc(C(F)(F)F)c1", "values": [
      {"measurement": "% of control", "setting": "[1]", "result": 82, "unit": "%"}
    ]},
    {"smiles": "CN(C)CCCOc1ccc(-c2cc(NCCCn3cccn3)nc(S(C)(=O)=O)n2)cc1", "values": [
      {"measurement": "dTM", "setting": "Peregrin (Homo sapiens)", "result": "< 2", "unit": "K"}
    ]},
    {"smiles": "CCN(CC)CCCCNc1ncc2cc(-c3cc(OC)cc(OC)c3)c(NC(=O)NC(C)(C)C)nc2n1", "values": [
      {"measurement": "% of control", "setting": "[2]", "result": 100, "unit": "%"},
      {"measurement": "% of control", "setting": "[3]", "result": 100, "unit": "%"}
    ]},
    {"smiles": "CC[C@@H]1[C@H](F)C(=O)N[C@@H]1COc1nccc2cc(C(N)=O)c(OC)cc12", "note": "[ZIMLOVISERTIB]", "values": [
      {"measurement": "% of inhibition", "setting": "[4]", "result": -7.1, "unit": "%"}
    ]},
    {"smiles": "CN(C)C/C=C/C(=O)Nc1ccc(C(=O)N2CCCC(Nc3ncc(Cl)c(-c4c[nH]c5ccccc45)n3)C2)cc1", "note": "(stereo unspecified)", "values": [
      {"measurement": "% of control", "setting": "[5]", "result": 78, "unit": "%"}
    ]},
    {"smiles": "C=CC(=O)Nc1cc(-n2c(=O)ccc3cnc4ccc(-c5ccc(NS(C)(=O)=O)cc5)cc4c32)ccc1C", "values": [
      {"measurement": "% of control", "setting": "[6]; at 1 µM", "result": 100, "unit": "%"},
      {"measurement": "% of control", "setting": "[6]; at 10 µM", "result": 94, "unit": "%"}
    ]},
    {"smiles": "N#Cc1cccc(-c2c[nH]c3ncnc(N4CCOCC4)c23)c1", "values": [
      {"measurement": "% of inhibition", "setting": "[7]", "result": 20, "unit": "%"}
    ]},
    {"smiles": "Cc1ccc(-c2ccc3c(ccc4sc5c(c43)NC[C@@H](C)NC5=O)n2)cn1", "values": [
      {"measurement": "% of inhibition", "setting": "[8]", "result": -1, "unit": "%"}
    ]},
    {"smiles": "CN(C)CCOc1ccc(-c2nc(-c3ccncc3)c(-c3ccc4c(c3)CC/C4=N\\O)[nH]2)cc1", "values": [
      {"measurement": "% of control", "setting": "[9]", "result": 100, "unit": "%"}
    ]},
    {"smiles": "Cn1cc(-n2cnc3c(NCc4nc5cc(Cl)c(Cl)cc5[nH]4)nc(N4CCOCC4)nc32)cn1", "values": [
      {"measurement": "% of inhibition", "setting": "[10]", "result": 64.1, "unit": "%"}
    ]},
    {"smiles": "C=CC(=O)Nc1cccc(C(=O)Nc2ccc(Nc3cc(-c4[nH]c(SC)nc4C)ccn3)cc2)c1", "values": [
      {"measurement": "% of control", "setting": "[11]; at 1 µM", "result": 63, "unit": "%"},
      {"measurement": "% of control", "setting": "[11]; at 5 µM", "result": 38, "unit": "%"},
      {"measurement": "% of control", "setting": "[12]; at 1 µM", "result": 85, "unit": "%"},
      {"measurement": "% of control", "setting": "[12]; at 5 µM", "result": 39, "unit": "%"}
    ]}
  ]
}
